Reference: US8906825B2, “Herbicidal compositions comprising 4-amino-3-chloro-5-fluoro-6-(4-chloro-2-fluoro-3-methoxyphenyl) pyridine-2-carboxylic acid or a derivative thereof and triazolopyrimidine sulfonamides” (Dow AgroSciences LLC, priority 2012, dated 2014)

How the values were obtained:
Assay type in all cases: in vivo
[1] = tested on: BRAPP (Brachiaria platyphylla (Griseb.) Nash, broadleaf signalgrass); assay: Postemergence foliar-applied herbicidal mixtures, direct seeded rice, greenhouse (Example I)
Description: (§1) Seeds or nutlets of the desired test plant species were planted in a soil matrix prepared by mixing a loam or sandy loam soil (e.g., 28.6 percent silt, 18.8 percent clay, and 52.6 percent sand, with a pH of about 5.8 and an organic matter content of about 1.8 percent) and calcareous grit in an 80 to 20 ratio. The soil matrix was contained in plastic pots with a volume of 1 quart and a surface area of 83.6 square centimeters (cm^2). When required to ensure good germination and healthy plants, a fungicide treatment and/or other chemical or physical treatment was applied. The plants were grown for 8-22 days in a greenhouse with an approximate 14 h photoperiod which was maintained at about 29° C. during the day and about 26° C. during the night. Nutrients (Peters Excel® 15-5-15 5-Ca 2-Mg and iron chelate) were applied in the irrigation solution as needed and water was added on a regular basis. Supplemental lighting was provided with overhead metal halide 1000-Watt lamps as necessary. The plants were employed for testing when they reached the first through fourth true leaf stage.
(§2) Treatments consisted of the acid or esters of 4-amino-3-chloro-5-fluoro-6-(4-chloro-2-fluoro-3-methoxy-phenyl)pyridine-2-carboxylic acid (Compound A), each formulated as an SC (suspension concentrate), and various herbicidal components alone and in combination. Forms of compound A were applied on an acid equivalent basis.
(§3) Other herbicidal components were applied on an active ingredient basis and included acetolactate synthase (ALS)-inhibiting herbicides (sulfonamide chemical class) penoxsulam formulated as Grasp® SC, diclosulam formulated as Strongarm®, and cloransulam-methyl formulated as FirstRate®, flumetsulam formulated as Flumetsulam WG, and metosulam formulated as Eclipse®.
(§4) Treatment requirements were calculated based upon the rates being tested, the concentration of active ingredient or acid equivalent in the formulation, and a 12 mL application volume at a rate of 187 L/ha.
(§5) For treatments comprised of formulated compounds, measured amounts of compounds were placed individually in 25 mL glass vials and diluted in a volume of 1.25% (v/v) Agri-Dex® crop oil concentrated to obtain 12× stock solutions. […] Application solutions were prepared by adding an appropriate amount of each stock solution (e.g., 1 mL) and diluted to the appropriate final concentrations with the addition of 10 mL of an aqueous mixture of 1.25% (v/v) crop oil concentrate so that the final spray solutions contained 1.25+/−0.05% (v/v) crop oil concentrate.
(§6) All stock solutions and applications solutions were visually inspected for compound compatibility prior to application. Spray solutions were applied to the plant material with an overhead Mandel track sprayer equipped with an 8002E nozzle calibrated to deliver 187 L/ha over an application area of 0.503 m^2 at a spray height of 18 to 20 inches (46 to 50 cm) above average plant canopy height. Control plants were sprayed in the same manner with the solvent blank.
(§7) The treated plants and control plants were placed in a greenhouse as described above and watered by sub-irrigation to prevent wash-off of the test compounds. After approximately 3 weeks, the condition of the test plants as compared with that of the untreated plants was determined visually and scored on a scale of 0 to 100 percent where 0 corresponds to no injury or growth inhibition and 100 corresponds to complete kill.
(§8) Colby's equation was used to determine the herbicidal effects expected from the mixtures (Colby, S. R. 1967. Calculation of the synergistic and antagonistic response of herbicide combinations. Weeds 15:20-22.).
(§9) The following equation was used to calculate the expected activity of mixtures containing two active ingredients, A and B: Expected=A+B−(A×B/100)

[2] = tested on: IPOHE (Ipomoea hederacea Jacq., ivyleaf morningglory); assay: as above
Description: as §1, §2, §3, §4, §5, §6, §7, §8, §9

[3] = tested on: ISCRU (Ischaemum rugosum Salisb., saramollagrass); assay: as above
Description: as §1, §2, §3, §4, §5, §6, §7, §8, §9

[4] = tested on: LEFCH (Leptochloa chinensis (L.) Nees, Chinese sprangletop); assay: as above
Description: as §1, §2, §3, §4, §5, §6, §7, §8, §9

[5] = tested on: SCPJU (Schoenoplectus juncoides Roxb., Japanese bulrush); assay: Water-injected field trial in transplanted rice, Japan (Example IV)
Experimental: Multiple post-emergence field trials were conducted under field conditions in Tolima, Colombia; Thessaloniki, Greece; Ottobiano and Copiano, Italy; Greenville, Miss. and Eagle Lake, Tex., USA; and water-injected treatments were tested at Ryugasaki, Japan. Trial sites were located in commercially grown fields of direct-seeded rice (Oryza sativa) using standard herbicide small plot research methodology, except in Japan where transplanted rice was utilized for the field trial. Post-emergence trial plot size varied from 2 to 3 meter (m)×5 to 8 m (width×length) with 4 replicates per treatment. Water-injected trial plot size was 2×2 m with 3 replicates per treatment. The rice crop was grown using normal cultural practices for fertilization, seeding, watering, flooding and maintenance to ensure good growth of the crop and the weeds.
All treatments in the post-emergence field trials were applied using a backpack compressed air/gas sprayer with flat fan nozzles (80° or 110°) calibrated to apply 187 to 300 L/ha spray volume at approximately 200-400 kPa nozzle pressure. In Japan, treatments were water-injected applied where the specified amount of commercial product was mixed in 100 mls of water per replicate and applied directly into 3 cm deep water containing the crop and weeds. Treatments consisted of the benzyl ester of 4-amino-3-chloro-5-fluoro-6-(4-chloro-2-fluoro-3-methoxy-phenyl)pyridine-2-carboxylic acid (Compound A), formulated as an SC (suspension concentrate), and various herbicidal components alone and in combination.
Commercially available products of penoxsulam (Viper 20OD® (Europe), Grasp 240SC® (USA), and Wideattack 37.5SC® (Japan)) were mixed in water at appropriate formulated product rates to achieve the desired rates based on a unit area of application (hectare) to achieve the desired rates as shown. Treatments were rated at 15 to 56 days after application (DAA) as compared to the untreated control plants. Visual weed control was scored on a scale of 0 to 100 percent where 0 corresponds to no injury and 100 corresponds to complete kill. […]

[6] = Penoxsulam 4.38 gai/ha, Table 3
[7] = Penoxsulam 8.75 gai/ha, Table 2
[8] = Penoxsulam 8.75 gai/ha, Table 3
[9] = Penoxsulam 17.5 gai/ha, Table 3
[10] = Compound A Benzyl Ester 8 gae/ha
[11] = Compound A Benzyl Ester 16 gae/ha
[12] = Compound A Benzyl Ester 17.5 gae/ha
[13] = Compound A Benzyl Ester 32 gae/ha
[14] = Compound A Benzyl Ester 4.38 gae/ha
[15] = Compound A Benzyl Ester 8.75 gae/ha

COc1cnc(OC)n2nc(NS(=O)(=O)c3c(OCC(F)F)cccc3C(F)(F)F)nc12 [Penoxsulam, 2-(2,2-difluoroethoxy)-N-(5,8-dimethoxy[1,2,4]triazolo[1,5-c]pyrimidin-2-yl)-6-(trifluoromethyl)benzenesulfonamide, reference compound]
Visual Weed Control (%) - 21 DAA BRAPP Obs ([1]; Penoxsulam 4.38 gai/ha, Table 2): 0%
Visual Weed Control (%) - 21 DAA BRAPP Obs [1, 6]: 0%
Visual Weed Control (%) - 21 DAA BRAPP Obs [1, 7]: 20%
Visual Weed Control (%) - 21 DAA BRAPP Obs [1, 8]: 20%
Visual Weed Control (%) - 21 DAA BRAPP Obs [1, 9]: 40%
Visual Weed Control (%) - 27 DAA IPOHE Obs [2, 6]: 10%
Visual Weed Control (%) - 27 DAA IPOHE Obs ([2]; Penoxsulam 8.75 gai/ha, Table 1): 15%
Visual Weed Control (%) - 27 DAA IPOHE Obs [2, 7]: 15%
Visual Weed Control (%) - 27 DAA IPOHE Obs [2, 8]: 15%
Visual Weed Control (%) - 27 DAA IPOHE Obs ([2]; Penoxsulam 17.5 gai/ha, Table 1): 20%
Visual Weed Control (%) - 27 DAA IPOHE Obs ([2]; Penoxsulam 17.5 gai/ha, Table 2): 20%
Visual Weed Control (%) - 27 DAA IPOHE Obs [2, 9]: 20%
Visual Weed Control (%) - 21 DAA ISCRU Obs ([3]; Penoxsulam 10 gai/ha): 0%
Visual Weed Control (%) - 21 DAA ISCRU Obs ([3]; Penoxsulam 20 gai/ha): 0%
Visual Weed Control (%) - 19 DAA LEFCH Obs ([4]; Penoxsulam 40 gai/ha): 0%
Visual Weed Control (%) - 28 DAA SCPJU Obs ([5]; Penoxsulam 50 gai/ha): 20%

COc1c(Cl)ccc(-c2nc(C(=O)OCc3ccccc3)c(Cl)c(N)c2F)c1F [Compound A Benzyl Ester, benzyl ester of 4-amino-3-chloro-5-fluoro-6-(4-chloro-2-fluoro-3-methoxy-phenyl)pyridine-2-carboxylic acid]
Visual Weed Control (%) - 22 DAA BRAPP Obs [1, 10]: 60%
Visual Weed Control (%) - 22 DAA BRAPP Obs [1, 11]: 60%
Visual Weed Control (%) - 21 DAA BRAPP Obs [1, 12]: 80%
Visual Weed Control (%) - 22 DAA BRAPP Obs [1, 13]: 90%
Visual Weed Control (%) - 27 DAA IPOHE Obs [2, 14]: 10%
Visual Weed Control (%) - 27 DAA IPOHE Obs [2, 15]: 10%
Visual Weed Control (%) - 27 DAA IPOHE Obs [2, 12]: 10%
Visual Weed Control (%) - 21 DAA ISCRU Obs [3, 10]: 20%
Visual Weed Control (%) - 21 DAA ISCRU Obs [3, 11]: 0%
Visual Weed Control (%) - 20 DAA LEFCH Obs [4, 14]: 10%
Visual Weed Control (%) - 22 DAA LEFCH Obs [4, 10]: 10%
Visual Weed Control (%) - 20 DAA LEFCH Obs [4, 15]: 20%
Visual Weed Control (%) - 22 DAA LEFCH Obs [4, 11]: 25%
Visual Weed Control (%) - 20 DAA LEFCH Obs [4, 12]: 60%
Visual Weed Control (%) - 22 DAA LEFCH Obs [4, 13]: 55%
Visual Weed Control (%) - 28 DAA SCPJU Obs ([5]; Compound A Benzyl Ester 150 gae/ha): 22%
Visual Weed Control (%) - 28 DAA SCPJU Obs ([5]; Compound A Benzyl Ester 200 gae/ha): 25%
